In ChEMBL document CHEMBL3991601, “The target landscape of clinical kinase drugs” (Science, 2017):
Active and inactive are the calls of the source. No stated cut-off is given here; in the data, actives have a measured Kd and inactives only a lower limit.

What was measured:
[1] = biological target: Hepatocyte growth factor receptor (Homo sapiens, UniProt P08581)
[2] = biological target: Mitogen-activated protein kinase kinase kinase kinase 4 (Homo sapiens, UniProt O95819)
[3] = biological target: Mitotic checkpoint serine/threonine-protein kinase BUB1 (Homo sapiens, UniProt O43683)
Mitotic checkpoint serine/threonine-protein kinase BUB1, sequence (O43683 whole entry): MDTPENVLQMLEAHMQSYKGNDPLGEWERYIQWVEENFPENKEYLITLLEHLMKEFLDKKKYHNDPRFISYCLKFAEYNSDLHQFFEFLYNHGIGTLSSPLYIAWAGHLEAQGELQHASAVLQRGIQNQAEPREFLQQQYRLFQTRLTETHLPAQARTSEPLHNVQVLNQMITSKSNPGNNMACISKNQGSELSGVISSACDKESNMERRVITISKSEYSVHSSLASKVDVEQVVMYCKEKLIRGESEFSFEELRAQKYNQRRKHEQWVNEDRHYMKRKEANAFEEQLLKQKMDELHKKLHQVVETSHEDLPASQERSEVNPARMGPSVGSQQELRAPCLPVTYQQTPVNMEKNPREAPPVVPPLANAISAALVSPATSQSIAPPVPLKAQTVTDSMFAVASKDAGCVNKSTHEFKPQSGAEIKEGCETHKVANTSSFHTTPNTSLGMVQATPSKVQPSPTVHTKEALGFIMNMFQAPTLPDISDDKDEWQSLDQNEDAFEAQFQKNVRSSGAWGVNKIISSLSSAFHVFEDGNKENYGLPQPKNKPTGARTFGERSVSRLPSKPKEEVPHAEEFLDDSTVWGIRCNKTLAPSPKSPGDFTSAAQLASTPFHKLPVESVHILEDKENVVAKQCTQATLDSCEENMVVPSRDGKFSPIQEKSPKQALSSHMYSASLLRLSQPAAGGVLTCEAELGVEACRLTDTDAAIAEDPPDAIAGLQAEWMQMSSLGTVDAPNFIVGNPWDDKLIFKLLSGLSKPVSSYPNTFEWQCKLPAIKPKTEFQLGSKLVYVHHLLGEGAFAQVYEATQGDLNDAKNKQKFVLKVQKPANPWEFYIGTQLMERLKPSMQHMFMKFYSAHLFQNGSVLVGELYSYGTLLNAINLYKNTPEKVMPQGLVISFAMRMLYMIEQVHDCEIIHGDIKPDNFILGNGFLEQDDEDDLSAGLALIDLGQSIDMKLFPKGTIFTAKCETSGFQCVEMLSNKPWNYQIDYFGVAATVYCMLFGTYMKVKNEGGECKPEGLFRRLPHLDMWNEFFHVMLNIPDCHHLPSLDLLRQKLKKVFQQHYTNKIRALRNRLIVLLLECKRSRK

[4] = biological target: T1, Serine/threonine-protein kinase LATS1 (Homo sapiens, UniProt O95835)
T1 sequence (O95835 whole entry): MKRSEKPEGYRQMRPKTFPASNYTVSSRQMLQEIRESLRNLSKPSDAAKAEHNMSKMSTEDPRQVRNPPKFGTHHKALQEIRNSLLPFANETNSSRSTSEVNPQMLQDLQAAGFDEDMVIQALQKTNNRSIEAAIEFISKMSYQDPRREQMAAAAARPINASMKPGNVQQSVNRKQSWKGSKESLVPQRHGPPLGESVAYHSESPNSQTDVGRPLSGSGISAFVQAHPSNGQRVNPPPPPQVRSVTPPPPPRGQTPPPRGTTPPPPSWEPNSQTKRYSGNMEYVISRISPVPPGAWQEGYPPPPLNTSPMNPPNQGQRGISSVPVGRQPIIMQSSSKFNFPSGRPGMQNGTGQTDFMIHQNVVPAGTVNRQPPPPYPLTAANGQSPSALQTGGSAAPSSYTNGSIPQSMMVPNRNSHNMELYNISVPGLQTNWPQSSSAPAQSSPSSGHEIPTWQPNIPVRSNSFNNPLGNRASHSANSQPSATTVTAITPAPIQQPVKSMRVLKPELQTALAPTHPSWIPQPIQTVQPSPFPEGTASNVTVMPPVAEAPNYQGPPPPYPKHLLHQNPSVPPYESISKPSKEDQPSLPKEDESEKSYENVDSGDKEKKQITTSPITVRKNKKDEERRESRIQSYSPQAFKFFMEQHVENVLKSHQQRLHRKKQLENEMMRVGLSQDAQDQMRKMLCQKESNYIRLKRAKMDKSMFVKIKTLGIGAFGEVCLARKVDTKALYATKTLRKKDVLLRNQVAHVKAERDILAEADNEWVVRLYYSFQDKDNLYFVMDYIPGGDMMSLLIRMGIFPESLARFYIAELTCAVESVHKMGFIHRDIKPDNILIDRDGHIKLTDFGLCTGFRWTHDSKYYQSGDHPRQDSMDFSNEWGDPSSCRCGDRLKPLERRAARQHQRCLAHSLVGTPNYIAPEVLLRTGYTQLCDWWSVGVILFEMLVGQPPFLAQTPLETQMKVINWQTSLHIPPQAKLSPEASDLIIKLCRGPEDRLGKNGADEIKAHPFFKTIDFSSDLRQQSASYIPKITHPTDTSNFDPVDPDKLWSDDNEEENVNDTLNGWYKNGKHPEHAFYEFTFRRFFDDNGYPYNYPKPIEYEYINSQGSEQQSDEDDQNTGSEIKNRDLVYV

[5] = biological target: Ribosomal protein S6 kinase alpha-6 (Homo sapiens, UniProt Q9UK32)
Ribosomal protein S6 kinase alpha-6, sequence (Q9UK32 whole entry): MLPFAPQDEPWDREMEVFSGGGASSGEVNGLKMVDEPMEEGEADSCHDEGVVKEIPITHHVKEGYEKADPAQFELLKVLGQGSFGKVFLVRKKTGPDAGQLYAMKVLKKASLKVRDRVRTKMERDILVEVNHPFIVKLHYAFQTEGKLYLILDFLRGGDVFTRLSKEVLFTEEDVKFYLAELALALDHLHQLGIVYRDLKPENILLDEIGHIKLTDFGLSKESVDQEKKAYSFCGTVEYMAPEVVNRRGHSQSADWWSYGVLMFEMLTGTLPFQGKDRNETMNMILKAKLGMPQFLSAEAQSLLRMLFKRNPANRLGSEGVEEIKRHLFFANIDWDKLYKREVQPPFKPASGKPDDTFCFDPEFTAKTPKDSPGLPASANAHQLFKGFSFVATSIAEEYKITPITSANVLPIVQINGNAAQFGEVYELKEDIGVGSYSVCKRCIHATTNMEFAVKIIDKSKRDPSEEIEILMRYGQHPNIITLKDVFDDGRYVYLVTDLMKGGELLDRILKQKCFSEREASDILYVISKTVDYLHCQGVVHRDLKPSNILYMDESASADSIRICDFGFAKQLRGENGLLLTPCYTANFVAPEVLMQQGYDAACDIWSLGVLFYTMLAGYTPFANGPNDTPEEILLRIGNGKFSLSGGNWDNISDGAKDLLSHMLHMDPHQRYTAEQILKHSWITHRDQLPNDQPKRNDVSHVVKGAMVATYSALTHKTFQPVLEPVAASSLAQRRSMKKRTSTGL

[6] = biological target: T2, Serine/threonine-protein kinase Nek9 (Homo sapiens, UniProt Q8TD19)
T2 sequence (Q8TD19 whole entry): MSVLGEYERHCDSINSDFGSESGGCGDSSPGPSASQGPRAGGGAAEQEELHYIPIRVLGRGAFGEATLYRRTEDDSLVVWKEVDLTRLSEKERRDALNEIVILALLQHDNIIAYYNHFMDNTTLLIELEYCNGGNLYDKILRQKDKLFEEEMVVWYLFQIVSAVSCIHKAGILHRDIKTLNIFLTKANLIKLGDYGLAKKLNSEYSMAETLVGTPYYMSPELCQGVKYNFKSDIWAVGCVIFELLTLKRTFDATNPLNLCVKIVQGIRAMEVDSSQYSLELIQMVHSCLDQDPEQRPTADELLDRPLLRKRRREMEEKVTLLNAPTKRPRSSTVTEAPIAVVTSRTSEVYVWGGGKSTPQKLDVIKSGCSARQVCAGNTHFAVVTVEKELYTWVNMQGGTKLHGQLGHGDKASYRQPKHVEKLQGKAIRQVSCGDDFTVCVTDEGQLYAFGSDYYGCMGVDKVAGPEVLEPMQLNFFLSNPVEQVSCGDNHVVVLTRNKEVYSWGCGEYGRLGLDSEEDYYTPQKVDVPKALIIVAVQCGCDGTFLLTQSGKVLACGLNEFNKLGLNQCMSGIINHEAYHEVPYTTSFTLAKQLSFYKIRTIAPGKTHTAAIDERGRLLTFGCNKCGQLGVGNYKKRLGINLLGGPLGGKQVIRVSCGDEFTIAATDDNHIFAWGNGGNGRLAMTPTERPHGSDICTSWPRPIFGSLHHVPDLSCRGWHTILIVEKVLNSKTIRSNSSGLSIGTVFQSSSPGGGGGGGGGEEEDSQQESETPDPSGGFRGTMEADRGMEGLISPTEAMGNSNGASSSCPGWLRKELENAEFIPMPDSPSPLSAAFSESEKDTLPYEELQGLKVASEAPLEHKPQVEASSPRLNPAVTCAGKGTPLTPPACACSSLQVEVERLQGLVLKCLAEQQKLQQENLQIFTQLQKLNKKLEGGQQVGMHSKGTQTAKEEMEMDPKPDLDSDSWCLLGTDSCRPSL

Mitogen-activated protein kinase kinase kinase kinase 4, sequence (O95819 whole entry): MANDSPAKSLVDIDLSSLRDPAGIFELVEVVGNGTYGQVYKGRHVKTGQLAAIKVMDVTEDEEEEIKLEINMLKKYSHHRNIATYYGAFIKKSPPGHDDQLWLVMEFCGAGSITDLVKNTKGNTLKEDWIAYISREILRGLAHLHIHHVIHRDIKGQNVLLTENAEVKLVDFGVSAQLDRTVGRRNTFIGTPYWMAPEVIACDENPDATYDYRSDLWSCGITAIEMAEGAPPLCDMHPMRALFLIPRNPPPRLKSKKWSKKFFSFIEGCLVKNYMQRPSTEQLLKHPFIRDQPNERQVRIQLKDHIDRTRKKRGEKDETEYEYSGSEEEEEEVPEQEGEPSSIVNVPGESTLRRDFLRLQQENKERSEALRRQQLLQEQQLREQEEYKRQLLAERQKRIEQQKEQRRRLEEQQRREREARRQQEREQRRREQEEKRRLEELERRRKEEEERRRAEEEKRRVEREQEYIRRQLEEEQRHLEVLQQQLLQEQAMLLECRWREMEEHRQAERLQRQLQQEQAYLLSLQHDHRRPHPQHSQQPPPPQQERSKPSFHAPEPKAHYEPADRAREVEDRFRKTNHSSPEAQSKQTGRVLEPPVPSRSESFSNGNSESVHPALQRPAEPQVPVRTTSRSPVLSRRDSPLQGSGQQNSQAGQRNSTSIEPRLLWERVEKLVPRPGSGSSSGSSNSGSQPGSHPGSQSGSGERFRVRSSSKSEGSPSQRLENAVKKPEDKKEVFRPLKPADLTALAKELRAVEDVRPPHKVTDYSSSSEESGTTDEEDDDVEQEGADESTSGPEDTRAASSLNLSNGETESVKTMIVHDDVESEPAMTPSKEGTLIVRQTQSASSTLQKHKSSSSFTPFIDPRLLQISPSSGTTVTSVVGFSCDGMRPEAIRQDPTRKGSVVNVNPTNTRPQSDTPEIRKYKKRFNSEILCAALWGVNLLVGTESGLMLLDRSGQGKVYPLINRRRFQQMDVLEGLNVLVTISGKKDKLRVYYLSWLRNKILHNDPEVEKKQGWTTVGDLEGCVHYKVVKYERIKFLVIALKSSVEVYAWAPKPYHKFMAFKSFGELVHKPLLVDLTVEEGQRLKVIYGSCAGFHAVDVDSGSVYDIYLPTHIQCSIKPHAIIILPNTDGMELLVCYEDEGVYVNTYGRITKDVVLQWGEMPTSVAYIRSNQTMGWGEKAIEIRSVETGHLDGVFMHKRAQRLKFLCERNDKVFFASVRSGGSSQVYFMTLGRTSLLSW
Hepatocyte growth factor receptor, sequence (P08581 whole entry): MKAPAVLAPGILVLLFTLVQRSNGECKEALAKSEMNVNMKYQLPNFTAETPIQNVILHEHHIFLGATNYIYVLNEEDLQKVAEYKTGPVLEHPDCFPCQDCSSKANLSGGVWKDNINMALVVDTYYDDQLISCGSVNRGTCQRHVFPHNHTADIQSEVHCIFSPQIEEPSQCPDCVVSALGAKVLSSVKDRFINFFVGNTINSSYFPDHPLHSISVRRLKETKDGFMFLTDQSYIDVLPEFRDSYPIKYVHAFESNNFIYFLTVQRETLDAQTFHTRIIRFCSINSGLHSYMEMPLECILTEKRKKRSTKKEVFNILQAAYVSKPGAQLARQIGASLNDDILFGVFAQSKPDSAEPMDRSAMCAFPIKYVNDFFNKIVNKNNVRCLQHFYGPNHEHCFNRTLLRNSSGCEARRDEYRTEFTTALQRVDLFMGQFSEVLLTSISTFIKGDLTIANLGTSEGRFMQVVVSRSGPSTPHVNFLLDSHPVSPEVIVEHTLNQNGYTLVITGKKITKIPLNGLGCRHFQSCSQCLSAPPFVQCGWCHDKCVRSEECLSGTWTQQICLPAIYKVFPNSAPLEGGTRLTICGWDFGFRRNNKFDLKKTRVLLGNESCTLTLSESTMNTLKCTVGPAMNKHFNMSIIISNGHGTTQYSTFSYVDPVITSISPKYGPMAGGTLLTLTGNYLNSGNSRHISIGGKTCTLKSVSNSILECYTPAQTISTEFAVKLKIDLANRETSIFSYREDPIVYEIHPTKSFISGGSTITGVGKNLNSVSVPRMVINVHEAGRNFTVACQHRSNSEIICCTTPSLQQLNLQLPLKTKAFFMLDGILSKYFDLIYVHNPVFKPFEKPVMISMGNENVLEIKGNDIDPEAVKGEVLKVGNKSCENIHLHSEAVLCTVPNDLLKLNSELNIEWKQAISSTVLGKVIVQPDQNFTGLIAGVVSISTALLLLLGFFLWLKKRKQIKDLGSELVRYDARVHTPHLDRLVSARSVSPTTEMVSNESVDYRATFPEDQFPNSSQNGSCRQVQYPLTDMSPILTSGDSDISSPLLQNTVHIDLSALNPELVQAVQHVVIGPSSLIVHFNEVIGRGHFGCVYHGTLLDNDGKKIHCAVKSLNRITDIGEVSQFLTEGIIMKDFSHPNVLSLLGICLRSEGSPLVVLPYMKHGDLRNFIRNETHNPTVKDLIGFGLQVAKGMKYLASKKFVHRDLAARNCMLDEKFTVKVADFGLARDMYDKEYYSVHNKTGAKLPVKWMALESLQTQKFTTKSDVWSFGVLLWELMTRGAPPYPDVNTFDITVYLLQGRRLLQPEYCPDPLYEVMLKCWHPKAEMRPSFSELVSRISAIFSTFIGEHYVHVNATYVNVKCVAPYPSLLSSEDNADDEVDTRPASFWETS

Kd [1]	Kd [2]	Kd [3]	Kd [4]	Kd [5]	Structure (SMILES)	Kd [6]
1.39 µM	> 30 µM (inactive)	> 30 µM (inactive)	> 30 µM (inactive)	> 30 µM (inactive)	COc1ccc(S(=O)(=O)N(C(C)=O)c2ccccc2/C=C/c2cc[n+]([O-])cc2)cc1 [HMN-214]	> 30 µM (inactive)
> 30 µM (inactive)	> 30 µM (inactive)	> 30 µM (inactive)	> 30 µM (inactive)	> 30 µM (inactive)	CNC(=O)c1cccc2cc(Oc3ccnc4cc(OCC5(N)CC5)c(OC)cc34)ccc12 [LUCITANIB]	> 30 µM (inactive)
> 30 µM (inactive)	> 30 µM (inactive)	> 30 µM (inactive)	> 30 µM (inactive)	> 30 µM (inactive)	NC1(c2ccc(-c3nc4ccn5c(=O)[nH]nc5c4cc3-c3ccccc3)cc2)CCC1 [MK-2206]	> 30 µM (inactive)
> 30 µM (inactive)	> 30 µM (inactive)	> 30 µM (inactive)	> 30 µM (inactive)	> 30 µM (inactive)	CN(C[C@@H]1COCCO1)S(=O)(=O)Nc1ccc2ccc3ncc(-c4cnn(C)c4)cc3c(=O)c2c1 [MK-2461]	> 30 µM (inactive)
> 30 µM (inactive)	> 30 µM (inactive)	> 30 µM (inactive)	> 30 µM (inactive)	> 30 µM (inactive)	FC(F)(F)c1ccc(/C=C/c2nc(COc3ccc(CCCCn4ccnn4)cc3)co2)cc1 [MUBRITINIB]	> 30 µM (inactive)
> 30 µM (inactive)	> 30 µM (inactive)	> 30 µM (inactive)	0.157 µM (active)	0.004 µM (active)	Cc1nc(Nc2n[nH]c3c2CN(C(=O)N[C@H](CN(C)C)c2ccccc2)C3(C)C)c2sccc2n1 [PF-03758309]	> 30 µM (inactive)
> 30 µM (inactive)	> 30 µM (inactive)	> 30 µM (inactive)	> 30 µM (inactive)	> 30 µM (inactive)	Cc1cnc(NC(=O)Nc2cc(Br)c(C)cc2OC[C@@H]2CNCCO2)cn1 [RABUSERTIB]	> 30 µM (inactive)
> 30 µM (inactive)	> 30 µM (inactive)	> 30 µM (inactive)	> 30 µM (inactive)	> 30 µM (inactive)	CO[C@H]1C[C@@H]2CC[C@@H](C)[C@@](O)(O2)C(=O)C(=O)N2CCCC[C@H]2C(=O)O[C@H]([C@H](C)C[C@@H]2CC[C@@H](OP(C)(C)=O)[C@H](OC)C2)CC(=O)[C@H](C)/C=C(\C)[C@@H](O)[C@@H](OC)C(=O)[C@H](C)C[C@H](C)/C=C/C=C/C=C/1C [RIDAFOROLIMUS]	> 30 µM (inactive)
> 30 µM (inactive)	> 30 µM (inactive)	> 30 µM (inactive)	> 30 µM (inactive)	> 30 µM (inactive)	N#CC1(c2ccc(NC(=O)c3cccnc3NCc3ccncc3)cc2)CCCC1 [RIVOCERANIB]	> 30 µM (inactive)
> 30 µM (inactive)	> 30 µM (inactive)	> 30 µM (inactive)	> 30 µM (inactive)	> 30 µM (inactive)	O=c1[nH]ccc2cc(OC3CCNCC3)ccc12 [SAR-407899 FREE BASE]	> 30 µM (inactive)
> 30 µM (inactive)	> 30 µM (inactive)	> 30 µM (inactive)	4.62 µM (active)	1.27 µM (active)	Cn1cc(-c2cnn3c(N)c(Br)c([C@@H]4CCCNC4)nc23)cn1 [SCH-900776]	> 30 µM (inactive)
> 30 µM (inactive)	> 30 µM (inactive)	> 30 µM (inactive)	> 30 µM (inactive)	> 30 µM (inactive)	CO[C@H]1C[C@@H]2CC[C@@H](C)[C@@](O)(O2)C(=O)C(=O)N2CCCC[C@H]2C(=O)O[C@H]([C@H](C)C[C@@H]2CC[C@@H](O)[C@H](OC)C2)CC(=O)[C@H](C)/C=C(\C)[C@@H](O)[C@@H](OC)C(=O)[C@H](C)C[C@H](C)/C=C/C=C/C=C/1C [SIROLIMUS]	> 30 µM (inactive)
> 30 µM (inactive)	> 30 µM (inactive)	> 30 µM (inactive)	> 30 µM (inactive)	0.899 µM (active)	CCS(=O)(=O)c1cccc(-c2cc(C(=O)NC3CCN(C)CC3)c(C)c3[nH]c4ncc(C)cc4c23)c1 [TAK-901]	> 30 µM (inactive)
> 30 µM (inactive)	> 30 µM (inactive)	> 30 µM (inactive)	> 30 µM (inactive)	> 30 µM (inactive)	CO[C@H]1C[C@@H]2CC[C@@H](C)[C@@](O)(O2)C(=O)C(=O)N2CCCC[C@H]2C(=O)O[C@H]([C@H](C)C[C@@H]2CC[C@@H](OC(=O)C(C)(CO)CO)[C@H](OC)C2)CC(=O)[C@H](C)/C=C(\C)[C@@H](O)[C@@H](OC)C(=O)[C@H](C)C[C@H](C)/C=C/C=C/C=C/1C [TEMSIROLIMUS]	> 30 µM (inactive)
> 30 µM (inactive)	1.91 µM (active)	> 30 µM (inactive)	> 30 µM (inactive)	> 30 µM (inactive)	COc1cc2c(Nc3ccc(Cl)c(Cl)c3F)ncnc2cc1OC[C@@H]1C[C@@H]2CN(C)C[C@@H]2C1 [TESEVATINIB]	> 30 µM (inactive)
> 30 µM (inactive)	> 30 µM (inactive)	> 30 µM (inactive)	> 30 µM (inactive)	> 30 µM (inactive)	O=C(Cc1ccc(-c2ccc(OCCN3CCOCC3)cc2)cn1)NCc1ccccc1 [TIRBANIBULIN]	> 30 µM (inactive)
0.511 µM (active)	> 30 µM (inactive)	> 30 µM (inactive)	> 30 µM (inactive)	> 30 µM (inactive)	O=C1NC(=O)[C@@H](c2cn3c4c(cccc24)CCC3)[C@@H]1c1c[nH]c2ccccc12 [TIVANTINIB]	> 30 µM (inactive)
> 30 µM (inactive)	> 30 µM (inactive)	> 30 µM (inactive)	> 30 µM (inactive)	> 30 µM (inactive)	C[C@@H](NC(=O)c1ncnc(N)c1Cl)c1ncc(C(=O)Nc2cc(C(F)(F)F)c(Cl)cn2)s1 [TOVORAFENIB]	> 30 µM (inactive)

Structure (SMILES)	Kd [1]	Kd [2]	Kd [3]	Kd [4]	Kd [5]	Kd [6]
O=C(Nc1cc(C(F)(F)F)cc(C(F)(F)F)c1)c1cc(Cl)ccc1O [IMD-0354]	> 30 µM (inactive)	> 30 µM (inactive)	> 30 µM (inactive)	> 30 µM (inactive)	> 30 µM (inactive)	> 30 µM (inactive)
CN1CCN(CCOc2cc(OC3CCOCC3)c3c(Nc4c(Cl)ccc5c4OCO5)ncnc3c2)CC1 [SARACATINIB]	> 30 µM (inactive)	1.12 µM (active)	> 30 µM (inactive)	> 30 µM (inactive)	> 30 µM (inactive)	> 30 µM (inactive)
Cc1cc(Nc2ncnc3ccc(NC4=NC(C)(C)CO4)cc23)ccc1Oc1ccn2ncnc2c1 [TUCATINIB]	> 30 µM (inactive)	> 30 µM (inactive)	> 30 µM (inactive)	> 30 µM (inactive)	> 30 µM (inactive)	> 30 µM (inactive)
